From the supplement of paper PMC10307832

How the values were obtained:
Test in all cases: relative viability (nuclei count vs DMSO), 5 days (fraction); higher = more cells survive
Midostaurin + Lapatinib = compound: CO[C@@H]1[C@H](N(C)C(=O)c2ccccc2)C[C@H]2O[C@]1(C)n1c3ccccc3c3c4c(c5c6ccccc6n2c5c31)C(=O)NC4 [Midostaurin] + CS(=O)(=O)CCNCc1ccc(-c2ccc3ncnc(Nc4ccc(OCc5cccc(F)c5)c(Cl)c4)c3c2)o1 [Lapatinib] (partner 2 µM)
In short: (§1)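 Lung cancer cell lines in 1536-well plates got either a single drug or a fixed anchor-drug dose together with five library-drug doses (not always all listed) in √10 steps, by pin tool, on the day after seeding. Nuclei were counted after 5 days, and relative viability is the treated-to-vehicle ratio of nuclei counts. Values are medians of duplicate plates.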

Midostaurin + Pictilisib = compound: CO[C@@H]1[C@H](N(C)C(=O)c2ccccc2)C[C@H]2O[C@]1(C)n1c3ccccc3c3c4c(c5c6ccccc6n2c5c31)C(=O)NC4 [Midostaurin] + CS(=O)(=O)N1CCN(Cc2cc3nc(-c4cccc5[nH]ncc45)nc(N4CCOCC4)c3s2)CC1 [Pictilisib] (partner 1 µM)
In short: as §1

[1] = compound: COc1cc(-c2nn([C@H]3CC[C@H](N4CCN(C(C)=O)CC4)CC3)c3ncnc(N)c23)ccc1NC(=O)c1cc2ccccc2n1C + CS(=O)(=O)CCNCc1ccc(-c2ccc3ncnc(Nc4ccc(OCc5cccc(F)c5)c(Cl)c4)c3c2)o1 [Lapatinib] (partner 2 µM)
In short: as §1

[2] = compound: COc1cc(-c2nn([C@H]3CC[C@H](N4CCN(C(C)=O)CC4)CC3)c3ncnc(N)c23)ccc1NC(=O)c1cc2ccccc2n1C + Cc1nc(NC(=O)N2CCC[C@H]2C(N)=O)sc1-c1ccnc(C(C)(C)C(F)(F)F)c1 [Alpelisib] (partner 2 µM)
In short: as §1

[3] = compound: COc1cc(-c2nn([C@H]3CC[C@H](N4CCN(C(C)=O)CC4)CC3)c3ncnc(N)c23)ccc1NC(=O)c1cc2ccccc2n1C + N=C(N)NC(=N)NCCc1ccccc1 [Phenformin] (partner 250 µM)
In short: as §1

Cell Line | relative viability (Midostaurin + Lapatinib; first compound 0.01 µM) | relative viability (Midostaurin + Lapatinib; first compound 0.03162 µM) | relative viability (Midostaurin + Lapatinib; first compound 0.1 µM) | relative viability (Midostaurin + Lapatinib; first compound 0.3162 µM) | relative viability (Midostaurin + Pictilisib; first compound 0.01 µM) | relative viability (Midostaurin + Pictilisib; first compound 0.03162 µM) | relative viability (Midostaurin + Pictilisib; first compound 0.1 µM) | relative viability (Midostaurin + Pictilisib; first compound 0.3162 µM) | relative viability ([1]; first compound 0.0128 µM) | relative viability ([1]; first compound 0.04048 µM) | relative viability ([1]; first compound 0.128 µM) | relative viability ([1]; first compound 1.28 µM) | relative viability ([2]; first compound 0.0128 µM) | relative viability ([2]; first compound 0.04048 µM) | relative viability ([2]; first compound 0.128 µM) | relative viability ([2]; first compound 1.28 µM) | relative viability ([3]; first compound 0.0128 µM) | relative viability ([3]; first compound 0.128 µM) | relative viability ([3]; first compound 1.28 µM) | relative viability ([3]; first compound 0.04048 µM)
EPLC-272H | 0.918 | 0.867 | 0.75 | 0.855 | 0.338 | 0.305 | 0.295 | 0.298 | 0.815 | 0.891 | 0.997 | 0.86 | 0.976 | 1.09 | 0.923 | 0.765 | 0.46 | 0.27 | 0.282 | 
NCI-H1915 | 0.865 | 0.972 | 0.956 | 1.04 | 0.913 | 0.852 | 1.01 | 0.98 | 1.08 | 1.03 | 0.992 | 1.01 | 1.13 | 1.07 | 1.02 | 0.857 | 0.387 | 0.375 | 0.334 | 0.396
NCI-H596 | 1.21 | 1.12 | 1.13 | 1.34 | 0.376 | 0.435 | 0.435 | 0.424 | 0.933 | 1.2 | 0.933 | 0.842 | 0.523 | 0.511 | 0.516 | 0.271 | 0.665 | 0.657 | 0.579 | 0.896
NCI-H322M | 0.621 | 0.465 | 0.627 | 0.695 | 0.52 | 0.493 | 0.5 | 0.594 | 0.627 | 0.679 | 0.621 | 0.474 | 0.801 | 0.844 | 0.681 | 0.741 | 0.815 | 0.743 | 0.553 | 0.816
NCI-H2228 | 0.966 | 1.07 | 1.23 | 0.972 | 0.422 | 0.454 | 0.452 | 0.617 | 1.37 | 0.958 | 1.14 | 0.861 | 0.774 | 0.793 | 0.692 | 0.45 | 0.278 | 0.327 | 0.327 | 0.26
NCI-H647 | 0.932 | 1.12 | 0.768 | 0.646 | 0.387 | 0.532 | 0.311 | 0.294 | 1.24 | 0.974 | 0.981 | 0.632 | 1.03 | 1.18 | 0.945 | 0.429 | 0.526 | 0.428 | 0.4 | 0.528
SK-MES-1 | 0.455 | 0.439 | 0.395 | 0.491 | 0.412 | 0.332 | 0.431 | 0.368 | 0.397 | 0.561 | 0.443 | 0.451 | 0.972 | 0.872 | 0.789 | 0.668 | 0.785 | 0.587 | 0.631 | 0.708
NCI-H2170 | 0.29 | 0.259 | 0.255 | 0.285 | 0.31 | 0.28 | 0.301 | 0.317 | 0.253 | 0.283 | 0.243 | 0.249 | 0.891 | 0.789 | 0.82 | 0.686 | 0.437 | 0.405 | 0.377 | 0.412
NCI-H2085 | 0.759 | 0.857 | 0.823 | 0.639 | 0.501 | 0.428 | 0.448 | 0.446 | 0.77 | 0.822 | 0.805 | 0.564 | 1.08 | 0.949 | 0.975 | 0.658 | 0.756 | 0.781 | 0.654 | 0.655
SW 1573 | 1.2 | 1.17 | 1.06 | 1.07 | 0.557 | 0.474 | 0.456 | 0.454 | 0.981 | 1 | 0.914 | 0.808 | 0.788 | 0.508 | 0.695 | 0.509 | 0.344 | 0.371 | 0.399 | 0.34
NCI-H727 | 1.02 | 0.739 | 0.91 | 0.728 | 0.491 | 0.301 | 0.378 | 0.329 | 0.804 |  | 0.754 | 0.718 | 0.62 |  | 0.454 | 0.405 | 0.559 | 0.495 | 0.619 | 
LOU-NH91 | 0.736 | 0.736 | 0.811 | 0.924 | 0.541 | 0.54 | 0.514 | 0.562 | 0.756 | 0.689 | 0.747 | 0.679 | 0.77 | 0.74 | 0.759 | 0.564 | 0.768 | 0.808 | 0.649 | 0.778
NCI-H3122 | 0.981 | 1.02 | 0.957 | 1.02 | 0.681 | 0.583 | 0.64 | 0.734 | 1.04 |  | 0.99 | 0.841 | 0.753 |  | 0.772 | 0.537 | 0.397 | 0.359 | 0.27 | 0.35
NCI-H460 | 0.839 | 1.03 | 0.971 | 0.936 | 0.388 | 0.296 | 0.346 | 0.417 | 1.05 | 0.994 | 0.964 | 0.741 | 0.386 | 0.59 | 0.57 | 0.378 | 0.551 | 0.501 | 0.482 | 0.553
NCI-H650 | 0.838 | 0.988 | 0.582 | 0.687 | 0.829 | 0.794 | 0.835 | 0.628 | 1.14 | 1.36 | 0.843 | 0.837 | 1.49 | 1.34 | 1.12 | 1.05 | 0.519 | 0.459 | 0.462 | 0.593
NCI-H661 | 0.389 | 0.449 | 0.411 | 0.384 | 0.397 | 0.386 | 0.33 | 0.438 | 0.545 | 0.532 | 0.469 | 0.319 | 0.418 | 0.526 | 0.729 | 0.376 | 0.271 | 0.256 | 0.261 | 0.273
